Experiments:
[1] = system: ASPC1; assay: Cytotoxicity against human ASPC1 cells by SRB assay; assay type: functional, cell-based
[2] = Cytotoxicity against human NCI-H69AR cells by SRB assay; assay type: functional, cell-based
[3] = system: L02; assay: Cytotoxicity against human L02 cells by SRB assay; assay type: cell-based
[4] = system: K562; assay: Cytotoxicity against human K562 cells by MTT assay; assay type: functional, cell-based
[5] = system: MDA-MB-231; assay: Cytotoxicity against human MDA-MB-231 cells by SRB assay; assay type: functional, cell-based

SMILES	IC50 [1]	IC50 [2]	IC50 [3]	IC50 [4]	IC50 [5]
COc1cccc2c1C(=O)c1c(O)c3c(c(O)c1C2=O)C[C@@](O)(C(=O)CO)C[C@@H]3O[C@H]1C[C@H](N)[C@H](O)[C@H](C)O1 [DOXORUBICIN]	< 1 µM	< 1 µM	< 1 µM	< 1 µM	< 1 µM
COC(=O)Cc1cc(CC/C=C(\C)CC/C=C(\C)CCC=C(C)C)ccc1O	> 30 µM	> 30 µM	> 30 µM	15 µM	> 30 µM

Source: ChEMBL document CHEMBL4813930, “Cytotoxic Manoalide-Type Sesterterpenes from the Sponge Luffariella variabilis Collected in the South China Sea” (J Nat Prod, 2021)
